Consider eleven molecules from ChEMBL document CHEMBL5291721, “A preclinical secondary pharmacology resource illuminates target-adverse drug reaction associations of marketed drugs” (Nat Commun, 2023).

Experiment [1] has as its target Adenosine receptor A2a (Homo sapiens, UniProt P29274).
Experiment [2] deals with T1, Alpha-2A adrenergic receptor (Homo sapiens, UniProt P08913).
T1 sequence (P08913 whole entry): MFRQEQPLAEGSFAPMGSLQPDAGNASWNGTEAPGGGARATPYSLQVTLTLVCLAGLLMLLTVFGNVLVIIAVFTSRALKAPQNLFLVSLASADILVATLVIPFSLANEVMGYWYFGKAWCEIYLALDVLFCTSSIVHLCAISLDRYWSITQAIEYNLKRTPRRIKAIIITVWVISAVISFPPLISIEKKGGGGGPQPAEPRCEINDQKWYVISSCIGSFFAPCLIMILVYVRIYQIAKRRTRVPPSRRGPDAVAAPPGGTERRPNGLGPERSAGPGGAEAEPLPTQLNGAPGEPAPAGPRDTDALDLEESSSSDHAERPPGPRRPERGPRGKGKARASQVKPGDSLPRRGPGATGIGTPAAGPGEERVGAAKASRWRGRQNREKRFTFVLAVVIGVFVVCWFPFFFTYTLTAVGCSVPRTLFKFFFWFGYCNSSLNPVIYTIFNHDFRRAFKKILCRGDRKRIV
The experiment is classed as functional, cell-based.

Experiment [3] deals with T2, Muscarinic acetylcholine receptor M2 (Homo sapiens, UniProt P08172).
T2 sequence (P08172 whole entry): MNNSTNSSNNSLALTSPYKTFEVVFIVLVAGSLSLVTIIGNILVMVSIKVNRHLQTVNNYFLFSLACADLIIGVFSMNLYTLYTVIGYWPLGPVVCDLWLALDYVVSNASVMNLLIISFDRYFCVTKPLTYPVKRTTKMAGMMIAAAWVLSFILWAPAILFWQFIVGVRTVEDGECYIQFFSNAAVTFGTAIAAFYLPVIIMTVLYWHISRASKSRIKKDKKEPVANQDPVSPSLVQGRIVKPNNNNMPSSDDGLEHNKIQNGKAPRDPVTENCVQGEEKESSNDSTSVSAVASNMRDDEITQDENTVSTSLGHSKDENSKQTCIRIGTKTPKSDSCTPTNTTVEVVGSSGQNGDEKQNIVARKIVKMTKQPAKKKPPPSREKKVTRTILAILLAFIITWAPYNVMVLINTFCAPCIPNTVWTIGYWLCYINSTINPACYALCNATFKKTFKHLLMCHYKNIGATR
The experiment is classed as functional, cell-based.

Experiment [4] deals with D(1A) dopamine receptor (Homo sapiens, UniProt P21728). The experiment is classed as functional, cell-based.
D(1A) dopamine receptor, sequence (P21728 whole entry): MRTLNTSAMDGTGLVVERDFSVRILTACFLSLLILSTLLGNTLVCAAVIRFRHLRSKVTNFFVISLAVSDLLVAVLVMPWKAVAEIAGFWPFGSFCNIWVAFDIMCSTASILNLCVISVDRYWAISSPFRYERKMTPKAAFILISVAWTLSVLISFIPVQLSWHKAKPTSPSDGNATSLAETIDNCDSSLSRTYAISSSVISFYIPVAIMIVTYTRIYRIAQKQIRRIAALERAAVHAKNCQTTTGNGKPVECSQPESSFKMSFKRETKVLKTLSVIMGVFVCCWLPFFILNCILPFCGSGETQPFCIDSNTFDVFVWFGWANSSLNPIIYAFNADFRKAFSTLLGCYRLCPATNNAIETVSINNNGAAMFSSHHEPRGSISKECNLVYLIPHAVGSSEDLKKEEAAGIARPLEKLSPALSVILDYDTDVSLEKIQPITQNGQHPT
In experiment [5] the target is Growth hormone secretagogue receptor type 1 (Homo sapiens, UniProt Q92847).
Growth hormone secretagogue receptor type 1, sequence (Q92847 whole entry): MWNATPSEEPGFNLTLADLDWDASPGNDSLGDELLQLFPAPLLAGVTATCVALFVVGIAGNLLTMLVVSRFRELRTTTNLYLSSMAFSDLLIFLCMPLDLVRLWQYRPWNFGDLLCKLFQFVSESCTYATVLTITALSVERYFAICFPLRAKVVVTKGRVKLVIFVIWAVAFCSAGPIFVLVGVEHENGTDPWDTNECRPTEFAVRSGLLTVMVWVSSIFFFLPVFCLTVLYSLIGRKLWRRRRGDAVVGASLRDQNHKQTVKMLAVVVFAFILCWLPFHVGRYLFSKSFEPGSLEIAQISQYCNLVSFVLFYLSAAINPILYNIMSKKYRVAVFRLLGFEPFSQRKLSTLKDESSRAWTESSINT
Experiment [6] addresses T3, 5-hydroxytryptamine receptor 1A (Homo sapiens, UniProt P08908).
T3 sequence (P08908 whole entry): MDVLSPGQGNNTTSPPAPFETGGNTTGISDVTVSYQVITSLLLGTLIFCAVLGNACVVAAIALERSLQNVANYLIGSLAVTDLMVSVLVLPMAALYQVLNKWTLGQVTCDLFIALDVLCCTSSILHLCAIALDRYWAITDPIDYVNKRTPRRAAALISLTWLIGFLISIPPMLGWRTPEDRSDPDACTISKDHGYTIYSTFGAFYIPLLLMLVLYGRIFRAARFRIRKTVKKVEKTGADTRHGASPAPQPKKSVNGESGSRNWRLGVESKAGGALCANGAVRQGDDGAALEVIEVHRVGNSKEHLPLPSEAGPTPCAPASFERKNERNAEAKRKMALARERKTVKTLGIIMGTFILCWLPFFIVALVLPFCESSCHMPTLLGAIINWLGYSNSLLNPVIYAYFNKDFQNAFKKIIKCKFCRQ
The format is functional, cell-based.

Experiment [7] addresses 5-hydroxytryptamine receptor 2B (Homo sapiens, UniProt P41595). The format is functional, cell-based.
For experiment [8], the target named is Melanocortin receptor 3 (Homo sapiens, UniProt P41968).
Melanocortin receptor 3, sequence (P41968 whole entry): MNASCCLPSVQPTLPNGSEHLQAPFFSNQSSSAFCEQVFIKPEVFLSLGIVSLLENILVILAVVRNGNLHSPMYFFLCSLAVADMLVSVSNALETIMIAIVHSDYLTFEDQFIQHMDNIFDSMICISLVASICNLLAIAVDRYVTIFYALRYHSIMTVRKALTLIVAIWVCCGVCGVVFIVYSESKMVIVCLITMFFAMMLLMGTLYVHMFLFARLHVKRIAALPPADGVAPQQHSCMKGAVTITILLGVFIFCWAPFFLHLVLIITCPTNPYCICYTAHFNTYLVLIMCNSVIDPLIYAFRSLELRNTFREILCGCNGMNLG
Experiment [9] concerns the target Melanocortin receptor 4 (Homo sapiens, UniProt P32245).
For experiment [10], the target named is T4, Neuropeptide Y receptor type 1 (Homo sapiens, UniProt P25929).
T4 sequence (P25929 whole entry): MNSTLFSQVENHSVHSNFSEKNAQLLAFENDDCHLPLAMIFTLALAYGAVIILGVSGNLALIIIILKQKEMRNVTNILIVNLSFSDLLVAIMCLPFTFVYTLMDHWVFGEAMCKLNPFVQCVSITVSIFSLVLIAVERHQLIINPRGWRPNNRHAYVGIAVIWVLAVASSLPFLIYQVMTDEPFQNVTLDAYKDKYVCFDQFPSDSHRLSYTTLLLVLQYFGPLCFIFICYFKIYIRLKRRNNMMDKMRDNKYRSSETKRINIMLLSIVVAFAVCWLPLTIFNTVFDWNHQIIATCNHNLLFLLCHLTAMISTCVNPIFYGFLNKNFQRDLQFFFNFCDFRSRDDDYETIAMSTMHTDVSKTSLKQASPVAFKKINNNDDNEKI

For experiment [11], the target named is T5, Amine oxidase [flavin-containing] A (Homo sapiens, UniProt P21397).
T5 sequence (P21397 whole entry): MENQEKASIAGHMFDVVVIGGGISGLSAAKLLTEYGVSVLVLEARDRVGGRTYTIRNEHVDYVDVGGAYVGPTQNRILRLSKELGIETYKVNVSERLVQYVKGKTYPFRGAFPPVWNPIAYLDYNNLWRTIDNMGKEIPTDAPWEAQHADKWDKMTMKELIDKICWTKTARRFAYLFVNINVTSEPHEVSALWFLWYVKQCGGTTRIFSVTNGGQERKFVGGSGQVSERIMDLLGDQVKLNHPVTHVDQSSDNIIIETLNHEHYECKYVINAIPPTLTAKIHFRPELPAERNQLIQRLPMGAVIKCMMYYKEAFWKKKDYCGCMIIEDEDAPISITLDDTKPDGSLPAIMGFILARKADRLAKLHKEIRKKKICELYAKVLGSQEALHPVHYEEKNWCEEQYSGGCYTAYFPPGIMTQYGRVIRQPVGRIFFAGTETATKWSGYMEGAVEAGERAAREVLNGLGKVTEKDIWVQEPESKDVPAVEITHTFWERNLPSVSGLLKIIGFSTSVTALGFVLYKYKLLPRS
The experiment is classed as functional.

Experiment [12] concerns the target cGMP-inhibited 3',5'-cyclic phosphodiesterase 3A (Homo sapiens, UniProt Q14432). The format is functional.

Molecules are shown by their SMILES.
Note: assay procedure not described here.

cGMP-inhibited 3',5'-cyclic phosphodiesterase 3A, sequence (Q14432 whole entry): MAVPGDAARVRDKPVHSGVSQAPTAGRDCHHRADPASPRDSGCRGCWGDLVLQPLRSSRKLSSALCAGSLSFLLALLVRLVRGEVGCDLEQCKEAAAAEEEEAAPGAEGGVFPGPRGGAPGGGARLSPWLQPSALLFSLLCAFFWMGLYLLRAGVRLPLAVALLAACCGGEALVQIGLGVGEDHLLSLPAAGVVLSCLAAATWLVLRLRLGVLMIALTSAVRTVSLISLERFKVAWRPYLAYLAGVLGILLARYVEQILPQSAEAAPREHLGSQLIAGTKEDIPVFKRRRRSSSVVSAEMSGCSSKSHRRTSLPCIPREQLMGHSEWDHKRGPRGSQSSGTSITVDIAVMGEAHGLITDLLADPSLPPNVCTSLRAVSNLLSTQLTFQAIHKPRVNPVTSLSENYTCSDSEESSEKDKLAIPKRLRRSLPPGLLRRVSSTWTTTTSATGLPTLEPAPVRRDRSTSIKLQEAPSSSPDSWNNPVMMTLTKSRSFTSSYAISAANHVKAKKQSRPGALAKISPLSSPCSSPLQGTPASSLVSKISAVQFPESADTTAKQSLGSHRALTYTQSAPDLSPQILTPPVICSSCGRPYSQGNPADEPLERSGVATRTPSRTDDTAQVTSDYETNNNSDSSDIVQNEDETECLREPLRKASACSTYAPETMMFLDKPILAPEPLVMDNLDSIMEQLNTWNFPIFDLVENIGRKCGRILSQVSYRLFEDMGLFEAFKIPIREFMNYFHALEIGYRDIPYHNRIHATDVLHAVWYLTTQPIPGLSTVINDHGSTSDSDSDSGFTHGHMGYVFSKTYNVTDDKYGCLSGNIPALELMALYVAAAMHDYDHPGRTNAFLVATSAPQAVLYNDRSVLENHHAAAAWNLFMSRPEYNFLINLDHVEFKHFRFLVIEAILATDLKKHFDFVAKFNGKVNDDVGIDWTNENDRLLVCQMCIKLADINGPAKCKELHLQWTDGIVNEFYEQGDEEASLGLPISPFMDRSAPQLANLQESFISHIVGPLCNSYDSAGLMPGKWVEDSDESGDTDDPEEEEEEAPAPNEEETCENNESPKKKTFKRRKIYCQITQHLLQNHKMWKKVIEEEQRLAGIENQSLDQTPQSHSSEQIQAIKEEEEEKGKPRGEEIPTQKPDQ
Melanocortin receptor 4, sequence (P32245 whole entry): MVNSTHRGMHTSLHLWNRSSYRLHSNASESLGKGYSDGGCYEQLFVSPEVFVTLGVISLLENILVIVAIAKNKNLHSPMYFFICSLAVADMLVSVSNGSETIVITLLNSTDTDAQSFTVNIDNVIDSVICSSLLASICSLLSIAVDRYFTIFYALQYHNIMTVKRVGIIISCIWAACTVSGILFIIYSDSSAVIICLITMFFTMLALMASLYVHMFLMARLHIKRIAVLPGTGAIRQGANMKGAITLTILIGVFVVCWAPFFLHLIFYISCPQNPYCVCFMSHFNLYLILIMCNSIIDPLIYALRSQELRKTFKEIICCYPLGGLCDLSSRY
5-hydroxytryptamine receptor 2B, sequence (P41595 whole entry): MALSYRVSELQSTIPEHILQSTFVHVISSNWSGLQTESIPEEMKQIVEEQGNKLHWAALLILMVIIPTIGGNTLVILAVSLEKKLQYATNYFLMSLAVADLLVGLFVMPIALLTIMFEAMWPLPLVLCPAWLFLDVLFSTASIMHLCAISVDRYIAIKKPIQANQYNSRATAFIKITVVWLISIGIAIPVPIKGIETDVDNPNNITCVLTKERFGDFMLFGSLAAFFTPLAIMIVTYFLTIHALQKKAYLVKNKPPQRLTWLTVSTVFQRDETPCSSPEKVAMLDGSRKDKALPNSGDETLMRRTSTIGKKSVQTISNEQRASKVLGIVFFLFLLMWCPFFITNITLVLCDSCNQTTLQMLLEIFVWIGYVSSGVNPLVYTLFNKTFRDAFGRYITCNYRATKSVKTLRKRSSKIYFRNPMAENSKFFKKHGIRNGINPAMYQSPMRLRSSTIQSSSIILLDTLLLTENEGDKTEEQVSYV
Adenosine receptor A2a, sequence (P29274 whole entry): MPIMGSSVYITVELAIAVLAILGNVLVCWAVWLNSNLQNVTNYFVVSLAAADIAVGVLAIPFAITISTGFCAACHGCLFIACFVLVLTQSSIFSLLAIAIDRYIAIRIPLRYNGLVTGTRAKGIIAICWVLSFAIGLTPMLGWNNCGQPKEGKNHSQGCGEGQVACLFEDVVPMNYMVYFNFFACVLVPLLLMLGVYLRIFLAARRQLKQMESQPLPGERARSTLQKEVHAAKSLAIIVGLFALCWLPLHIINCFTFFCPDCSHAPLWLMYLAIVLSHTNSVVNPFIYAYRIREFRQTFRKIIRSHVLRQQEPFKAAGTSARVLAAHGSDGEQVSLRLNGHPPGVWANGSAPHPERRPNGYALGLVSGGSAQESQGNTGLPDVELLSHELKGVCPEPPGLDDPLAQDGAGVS

As usually defined, the AC50 is the midpoint of the concentration-response curve, whichever way the signal moves. Low readings indicate greater potency, high ones weaker potency. As to `CCC1(C)CC(=O)NC1=O` (stereo unspecified) [ETHOSUXIMIDE], the AC50 in experiment [1] is > 10 µM; in experiment [2] it was > 10 µM; in experiment [3], > 10 µM; in [4] it was > 30 µM; in experiment [5], > 10 µM; in [6], > 10 µM. In addition, the AC50 in experiment [7] was > 10 µM; in experiment [8], > 10 µM; in experiment [9], > 10 µM; in experiment [10], > 10 µM; in experiment [11], > 10 µM; in [12], > 30 µM.

As for `CC(=O)[C@@]1(O)CC[C@H]2[C@@H]3C[C@H](C)C4=CC(=O)C=C[C@]4(C)[C@@]3(F)[C@@H](O)C[C@@]21C` [FLUOROMETHOLONE], the AC50 in experiment [1], in experiment [2], in experiment [3], in [4], in experiment [5] and in [6] was > 10 µM in each case. For the same molecule, the half-maximal activity concentration (AC50) in experiment [7] is > 10 µM; in experiment [8], > 10 µM; in experiment [9] it was > 10 µM; in [10] it was > 10 µM; in experiment [11] it was > 10 µM; in experiment [12] it was > 30 µM.

As for `Nc1cc(N2CCCCC2)nc(N)[n+]1[O-]` [MINOXIDIL], the AC50 in [1] was > 30 µM; in experiment [2] it was > 10 µM; in experiment [3], > 10 µM; in experiment [4], > 30 µM; in experiment [5], > 30 µM; in experiment [6] it was > 30 µM. In addition, the AC50 is > 10 µM in [7]; > 30 µM in experiment [8]; > 30 µM in experiment [9]; > 10 µM in experiment [11]; > 30 µM in experiment [12].

Take `CC1CC(OC(=O)C(O)c2ccccc2)CC(C)(C)C1` (stereo unspecified) [CYCLANDELATE]: the AC50 in [1], in [2], in [3], in [4], in [5] and in experiment [6] was > 10 µM in each case. Also, the concentration at half-maximal activity (AC50) in experiment [7] was > 10 µM; in [8], > 10 µM; in [9] it was > 10 µM; in experiment [10], > 10 µM; in experiment [11], > 10 µM; in experiment [12], > 30 µM.

For the molecule `CC(C)(C)NCC(O)COc1cccc2c1CC(O)C(O)C2` (stereo unspecified) [NADOLOL], the AC50 in [1], in experiment [2], in experiment [3], in experiment [4], in experiment [5] and in [6] was > 10 µM each time. Besides, the AC50 in [7] was > 10 µM; in experiment [8] it was > 10 µM; in experiment [9], > 10 µM; in experiment [10] it was > 10 µM; in experiment [11], > 10 µM; in experiment [12], > 30 µM.

Regarding `O=C(O)CCCC[C@@H]1SC[C@@H]2NC(=O)N[C@@H]21` [BIOTIN], the AC50 in experiment [1], in [2], in experiment [3], in experiment [4], in [5] and in experiment [6] was > 10 µM throughout. The AC50 was > 10 µM in experiment [7]; > 10 µM in experiment [8]; > 10 µM in [9]; > 10 µM in [10]; > 10 µM in experiment [11]; > 30 µM in experiment [12].

Take `CN(Cc1ccc(C(C)(C)C)cc1)Cc1cccc2ccccc12` [BUTENAFINE]: the AC50 in experiment [1], in [2], in experiment [3], in [4], in experiment [5] and in experiment [6] was > 10 µM each time. For the same molecule, the half-maximal activity concentration (AC50) is > 10 µM in experiment [7]; > 10 µM in experiment [8]; > 10 µM in experiment [9]; > 10 µM in experiment [10]; > 10 µM in [11]; > 30 µM in [12].

Consider `OCCN(CCO)c1nc(N2CCCCC2)c2nc(N(CCO)CCO)nc(N3CCCCC3)c2n1` [DIPYRIDAMOLE], for which the AC50 is > 30 µM in experiment [1]; > 10 µM in [2]; 2 µM in experiment [3]; > 30 µM in experiment [4]; > 30 µM in experiment [5]; > 30 µM in [6]. The half-maximal activity concentration (AC50) was 15 µM in experiment [7]; > 30 µM in experiment [8]; > 30 µM in [9]; > 30 µM in experiment [10]; > 30 µM in experiment [11]; > 30 µM in [12].

Regarding `Nc1ccc(S(=O)(=O)Nc2ncccn2)cc1` [SULFADIAZINE], the AC50 in experiment [1], in experiment [2], in experiment [3], in experiment [4], in experiment [5] and in [6] was > 10 µM each time. Besides, the AC50 was > 10 µM in experiment [7]; > 10 µM in [8]; > 10 µM in [9]; > 10 µM in experiment [10]; > 10 µM in [11]; > 30 µM in experiment [12].

As to `CC1Cc2ccccc2N1NC(=O)c1ccc(Cl)c(S(N)(=O)=O)c1` (stereo unspecified) [INDAPAMIDE], the AC50 in experiment [1] was > 30 µM; in [2], > 10 µM; in experiment [3] it was > 10 µM; in [4] it was > 10 µM; in experiment [5], > 30 µM; in [6] it was > 30 µM. Further, the concentration at half-maximal activity (AC50) in experiment [7] was > 10 µM; in experiment [8], > 30 µM; in experiment [9], > 30 µM; in [10] it was > 30 µM; in experiment [11], > 10 µM; in experiment [12] it was > 10 µM.

With `CCN(C(C)=O)c1cccc(-c2ccnc3c(C#N)cnn23)c1` [ZALEPLON], the AC50 in experiment [1] is > 30 µM; in [2] it was > 10 µM; in [3] it was > 10 µM; in experiment [4], > 10 µM; in [5], > 30 µM; in experiment [6], > 10 µM. Moreover, the AC50 in [7] was > 10 µM; in experiment [8] it was > 30 µM; in experiment [9] it was > 30 µM; in experiment [10], > 30 µM; in [11], > 10 µM; in experiment [12], 10 µM.
